Results from ChEMBL document CHEMBL3992490, “Synthesis, spectroscopic properties and photodynamic activity of two cationic BODIPY derivatives with application in the photoinactivation of microorganisms” (Eur J Med Chem, 2017).
Calls of active or inactive are those of the source. The rule behind the calls is not given here.

How the values were obtained:
[1] = In vitro photodynamic activity in DMF/5% water assessed as reactive oxygen species production by measuring photo-oxidation rate of L-tryptophan after irradiation in presence of D-mannitol by absorption spectra analysis
Escherichia coli [2] = assay: Antibacterial activity against Escherichia coli EC7 assessed as reduction in cell survival at 5 uM irradiated with visible light for 15 mins by UV-visible spectroscopic method; format: functional
Staphylococcus aureus [3] = assay: Dark toxicity against Staphylococcus aureus ATCC 25923 assessed as cell viability at 1 uM in presence of 10 mM potassium iodide measured after 30 mins by UV-visible spectroscopic method; conditions: 0.5 h
[4] = Ratio of rate constant for induction of singlet oxygen production in DMF assessed as photodegradation rate of DPBF to rate constant for induction of reactive oxygen species production in DMF assessed as photodegradation rate of L-tryptophan
[5] = In vitro photodynamic activity in DMF/5% water assessed as singlet oxygen production by measuring photo-oxidation rate of DPBF after irradiation by absorption spectra analysis
Escherichia coli [6] = assay: Antibacterial activity against Escherichia coli EC7 assessed as reduction in cell survival at 5 uM irradiated with visible light for 15 mins in presence of 10 mM potassium iodide by UV-visible spectroscopic method; format: functional
[7] = In vitro photodynamic activity in DMF/5% water assessed as singlet oxygen production by measuring photo-oxidation rate of DPBF after irradiation in presence of 10 mM potassium iodide by absorption spectra analysis
[8] = In vitro photodynamic activity in n-heptane/0.1 M AOT/water micelles assessed as singlet oxygen production by measuring photodegradation rate of DPBF after irradiation by absorption spectra analysis
Escherichia coli [9] = assay: Dark toxicity against Escherichia coli EC7 assessed as cell viability at 5 uM measured after 30 mins by UV-visible spectroscopic method; conditions: 0.5 h
Staphylococcus aureus [10] = assay: Dark toxicity against Staphylococcus aureus ATCC 25923 assessed as cell viability at 1 uM measured after 30 mins by UV-visible spectroscopic method; conditions: 0.5 h
Escherichia coli [11] = assay: Dark toxicity against Escherichia coli EC7 assessed as cell viability at 5 uM in presence of 10 mM potassium iodide measured after 30 mins by UV-visible spectroscopic method; conditions: 0.5 h
Staphylococcus aureus [12] = assay: Antibacterial activity against Staphylococcus aureus ATCC 25923 assessed as reduction in cell survival at 1 uM irradiated with visible light for 5 mins by UV-visible spectroscopic method; format: functional
[13] = In vitro photodynamic activity in DMF/5% water assessed as iodine production at 1 uM irradiated with visible light for 5 to 30 mins under argon condition in presence of 10 mM potassium iodide by UV-visible spectra analysis
[14] = In vitro photodynamic activity in DMF/10% water assessed as reactive oxygen species production by measuring photo-oxidation rate of L-tryptophan after irradiation by absorption spectra analysis
[15] = In vitro photodynamic activity in DMF assessed as singlet oxygen production by measuring photodegradation rate of DPBF after irradiation by absorption spectra analysis
Candida albicans [16] = assay: Anti-fungal activity against Candida albicans PC31 assessed as reduction in cell survival at 5 uM irradiated with visible light for 30 mins by UV-visible spectroscopic method; format: functional
[17] = In vitro photodynamic activity in DMF assessed as reactive oxygen species production by measuring photo-oxidation rate of L-tryptophan after irradiation by absorption spectra analysis
[18] = In vitro photodynamic activity in DMF/10% water assessed as reactive oxygen species production by measuring photo-oxidation rate of L-tryptophan after irradiation in presence of 50 mM potassium iodide by absorption spectra analysis
[19] = In vitro photodynamic activity in DMF/5% water assessed as iodine production at 1 uM under dark condition in presence of 10 mM potassium iodide by UV-visible spectra analysis
Candida albicans [20] = assay: Dark toxicity against Candida albicans PC31 assessed as cell viability at 5 uM in presence of 10 mM potassium iodide measured after 30 mins by UV-visible spectroscopic method; conditions: 0.5 h
[21] = In vitro photodynamic activity in DMF/5% water assessed as reactive oxygen species production by measuring photo-oxidation rate of L-tryptophan after irradiation in presence of DABCO by absorption spectra analysis
[22] = In vitro photodynamic activity in DMF/5% water assessed as singlet oxygen production by measuring photo-oxidation rate of DPBF after irradiation in presence of 50 mM potassium iodide by absorption spectra analysis
[23] = In vitro photodynamic activity in DMF assessed as singlet oxygen production by measuring decrease in DPBF level after irradiation by absorption spectra analysis; conditions: TDE = time-dependent effect
Candida albicans [24] = assay: Anti-fungal activity against Candida albicans PC31 assessed as reduction in cell survival at 5 uM irradiated with visible light for 30 mins in presence of 10 mM potassium iodide by UV-visible spectroscopic method; format: functional
[25] = In vitro photodynamic activity in DMF/5% water assessed as iodine production at 1 uM irradiated with visible light for 5 to 30 mins under aerobic condition in presence of 10 mM potassium iodide by UV-visible spectra analysis
Staphylococcus aureus [26] = assay: Antibacterial activity against Staphylococcus aureus ATCC 25923 assessed as reduction in cell survival at 1 uM irradiated with visible light for 5 mins in presence of 10 mM potassium iodide by UV-visible spectroscopic method; format: functional
Candida albicans [27] = assay: Dark toxicity against Candida albicans PC31 assessed as cell viability at 5 uM measured after 30 mins by UV-visible spectroscopic method; conditions: 0.5 h
[28] = In vitro photodynamic activity in DMF/5% water assessed as reactive oxygen species production by measuring photo-oxidation rate of L-tryptophan after irradiation by absorption spectra analysis

Row | SMILES | K [1] | Activity (Escherichia coli [2]) | Activity (Staphylococcus aureus [3]) | Ratio [4] | K [5] | Activity (Escherichia coli [6]) | K [7] | K [8] | Activity (Escherichia coli [9]) | Activity (Staphylococcus aureus [10]) | Activity (Escherichia coli [11]) | Activity (Staphylococcus aureus [12]) | Activity [13] | K [14] | K [15] | Activity (Candida albicans [16]) | K [17] | K [18] | Activity [19] | Activity (Candida albicans [20]) | other results
1 | CC1=CC(C)=[N+]2C1=C(c1ccc([N+](C)(C)C)cc1)c1c(C)cc(C)n1[B-]2(F)F | 1.41 ×10⁻⁵ /s | 2.5 deltalog10CFU/ml | Non-Toxic | 3.2 | 1.8 ×10⁻⁴ /s | Active | 1.58 ×10⁻⁴ /s | 1.95 ×10⁻⁴ /s | Non-Toxic | Non-Toxic | Non-Toxic | >5 deltalog10CFU/ml | inactive | 2.13 ×10⁻⁵ /s | 9.51 ×10⁻⁵ /s | 3.7 deltalog10CFU/ml | 3.06 ×10⁻⁴ /s | 4.42 ×10⁻⁵ /s | inactive | Non-Toxic | K [21]: 2.98 ×10⁻⁵ /s; K [22]: 1.02 ×10⁻⁴ /s; Activity [23]: Tde; Activity (Candida albicans [24]): Active; Activity [25]: Active; Activity (Staphylococcus aureus [26]): Active; Activity (Candida albicans [27]): Non-Toxic; K [28]: 4.75 ×10⁻⁵ /s
2 | C[N+](C)(C)CCCOc1ccc(C2=C3C=CC=[N+]3[B-](F)(F)n3cccc32)cc1 | 1.56 ×10⁻⁵ /s | 2.5 deltalog10CFU/ml | Non-Toxic | 8.3 | 5.81 ×10⁻⁵ /s | Active | 2.79 ×10⁻⁵ /s | 1.25 ×10⁻⁴ /s | Non-Toxic | Non-Toxic | Non-Toxic | >5 deltalog10CFU/ml | inactive | 2.79 ×10⁻⁵ /s | 4.15 ×10⁻⁵ /s | 0.9 deltalog10CFU/ml | 3.44 ×10⁻⁴ /s | 9.55 ×10⁻⁵ /s | inactive | Non-Toxic | K [21]: 3 ×10⁻⁵ /s; K [22]: 0.64 ×10⁻⁵ /s; Activity [23]: Tde; Activity (Candida albicans [24]): Active; Activity [25]: Active; Activity (Staphylococcus aureus [26]): Active; Activity (Candida albicans [27]): Non-Toxic; K [28]: 7.86 ×10⁻⁵ /s
